Paper PMC6572064, “Discovery of 2-(1-(3-(4-Chloroxyphenyl)-3-oxo- propyl)pyrrolidine-3-yl)-1H-benzo[d]imidazole-4-carboxamide: A Potent Poly(ADP-ribose) Polymerase (PARP) Inhibitor for Treatment of Cancer” (Molecules, 2019)
Like-named read-outs stand apart in the source and are kept apart here.

How the values were obtained:
PARP-1 = molecular target: T1, PARP-1 (Homo sapiens, UniProt P09874); assay: PARP-1 inhibition assay (PARP-1 Chemiluminescent Assay Kit, BPS Bioscience); format: biochemical; settings: 10 nM compound
T1 construct: purchased BPS Bioscience 80569
T1 sequence (P09874 whole entry): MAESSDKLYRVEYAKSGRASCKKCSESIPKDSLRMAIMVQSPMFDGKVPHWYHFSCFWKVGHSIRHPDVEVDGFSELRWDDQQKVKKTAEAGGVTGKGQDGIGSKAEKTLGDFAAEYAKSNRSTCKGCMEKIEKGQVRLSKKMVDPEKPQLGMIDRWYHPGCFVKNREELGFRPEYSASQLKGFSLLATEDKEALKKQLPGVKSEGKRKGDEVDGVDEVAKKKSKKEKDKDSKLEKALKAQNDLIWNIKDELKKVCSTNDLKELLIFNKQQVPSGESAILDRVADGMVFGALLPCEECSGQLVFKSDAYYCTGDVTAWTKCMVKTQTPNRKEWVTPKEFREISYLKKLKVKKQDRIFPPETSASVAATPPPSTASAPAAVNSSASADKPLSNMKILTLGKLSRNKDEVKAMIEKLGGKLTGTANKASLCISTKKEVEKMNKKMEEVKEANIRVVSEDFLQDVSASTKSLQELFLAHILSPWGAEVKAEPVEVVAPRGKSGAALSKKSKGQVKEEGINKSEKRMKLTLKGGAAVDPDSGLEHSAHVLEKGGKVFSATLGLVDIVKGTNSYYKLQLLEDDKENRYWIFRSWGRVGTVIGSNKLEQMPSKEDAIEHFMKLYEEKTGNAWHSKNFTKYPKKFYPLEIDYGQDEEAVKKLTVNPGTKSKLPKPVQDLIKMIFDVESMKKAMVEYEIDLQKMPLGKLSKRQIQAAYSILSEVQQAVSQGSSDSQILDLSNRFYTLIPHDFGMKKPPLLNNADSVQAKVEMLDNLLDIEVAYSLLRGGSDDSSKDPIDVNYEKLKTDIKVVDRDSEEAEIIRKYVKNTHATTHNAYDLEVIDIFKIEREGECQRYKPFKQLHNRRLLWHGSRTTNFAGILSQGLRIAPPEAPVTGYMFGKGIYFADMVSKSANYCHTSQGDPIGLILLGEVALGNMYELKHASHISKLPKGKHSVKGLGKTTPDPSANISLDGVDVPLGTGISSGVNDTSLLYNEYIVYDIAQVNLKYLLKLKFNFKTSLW
Protocol: (§1) The PARP-1 and PARP-2 inhibition assays were performed in outsourcing, by a CRO company, Shanghai Medicilon Inc. (Shanghai, China). […] Briefly, PARP-1 or PARP-2 biotinylated substrate was incubated with compounds or solvent control at varying concentrations and an assay buffer containing the PARP-1 or PARP-2 enzyme.

PARP-2 = molecular target: T2, PARP-2 (Homo sapiens, UniProt Q9UGN5); assay: PARP-2 inhibition assay (PARP-2 Chemiluminescent Assay Kit, BPS Bioscience); format: biochemical; settings: 10 nM compound
T2 construct: purchased BPS Bioscience 80552
T2 sequence (Q9UGN5 whole entry): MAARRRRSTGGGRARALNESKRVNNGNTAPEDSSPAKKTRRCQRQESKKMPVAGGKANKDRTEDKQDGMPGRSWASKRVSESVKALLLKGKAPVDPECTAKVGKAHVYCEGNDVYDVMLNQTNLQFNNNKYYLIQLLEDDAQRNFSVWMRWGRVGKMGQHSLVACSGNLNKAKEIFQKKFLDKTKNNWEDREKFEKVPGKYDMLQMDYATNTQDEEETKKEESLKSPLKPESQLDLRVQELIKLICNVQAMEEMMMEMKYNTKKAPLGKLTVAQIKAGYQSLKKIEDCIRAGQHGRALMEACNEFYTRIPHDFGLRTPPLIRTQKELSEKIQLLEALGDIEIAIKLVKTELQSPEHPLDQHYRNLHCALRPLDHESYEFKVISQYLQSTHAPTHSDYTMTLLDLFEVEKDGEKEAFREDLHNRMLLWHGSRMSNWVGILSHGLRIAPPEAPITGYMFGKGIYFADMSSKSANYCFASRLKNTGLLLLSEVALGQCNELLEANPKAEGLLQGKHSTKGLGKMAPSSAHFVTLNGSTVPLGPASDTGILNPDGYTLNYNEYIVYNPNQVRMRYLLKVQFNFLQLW
Protocol: as §1

[1] = system: MDA-MB-436 (a BRCA-1-mutated breast cancer cell line); assay: Cell proliferation assay, three-day, CellTiter-Glo, MDA-MB-436; format: cell-based; settings: for inhibition at 0.00508 µM / inhibition at 0.0152 µM / inhibition at 0.0457 µM / inhibition at 0.41 µM / inhibition at 1.23 µM / inhibition at 3.7 µM / inhibition at 11.11 µM / inhibition at 33.33 µM / inhibition at 100 µM / IC50: Homo sapiens; for inhibition at 0.00508 µM: MDA-MB-436, MDA-MB-436, Conc. 0.00508 uM; for inhibition at 0.0152 µM: MDA-MB-436, MDA-MB-436, Conc. 0.0152 uM; for inhibition at 0.0457 µM: MDA-MB-436, MDA-MB-436, Conc. 0.0457 uM; for inhibition at 0.41 µM: MDA-MB-436, MDA-MB-436, Conc. 0.41 uM; for inhibition at 1.23 µM: MDA-MB-436, MDA-MB-436, Conc. 1.23 uM; for inhibition at 3.7 µM: MDA-MB-436, MDA-MB-436, Conc. 3.70 uM; for inhibition at 11.11 µM: MDA-MB-436, MDA-MB-436, Conc. 11.11 uM; for inhibition at 33.33 µM: MDA-MB-436, MDA-MB-436, Conc. 33.33 uM; for inhibition at 100 µM: MDA-MB-436, MDA-MB-436, Conc. 100.00 uM
Procedure, shortened: (§2)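 Luminescent ATP read-out (CellTiter-Glo, 60 min at room temperature) quantified viability after a 72 h compound exposure at 37 °C, 5% CO2. Compounds, diluted from DMSO stocks into growth medium, were added to cells plated the previous day.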

[2] = system: CAPAN-1 (a BRCA-2-mutated pancreatic cancer cell line); assay: Cell proliferation assay, three-day, CellTiter-Glo, CAPAN-1; format: cell-based; settings: Homo sapiens; for IC50: CAPAN-1, 72 h, CellTiter-Glo, read-out: CAPAN-1 IC50; for inhibition at 0.00508 µM: CAPAN-1, 0.00508 uM; for inhibition at 0.0152 µM: CAPAN-1, 0.0152 uM; for inhibition at 0.0457 µM: CAPAN-1, 0.0457 uM; for inhibition at […]: CAPAN-1, 0.14 uM; for inhibition at 0.41 µM: CAPAN-1, 0.41 uM; for inhibition at 1.23 µM: CAPAN-1, 1.23 uM; for inhibition at 3.7 µM: CAPAN-1, 3.70 uM; for inhibition at 11.11 µM: CAPAN-1, 11.11 uM; for inhibition at 33.33 µM: CAPAN-1, 33.33 uM; for inhibition at 100 µM: CAPAN-1, 100.00 uM
Procedure, shortened: as §2

[3] = supplement sheet, read-out: 10 nM inhibition% PAPR-1
[4] = read-out: PARP-1 Inhibition % (10 nM)
[5] = supplement sheet, read-out: 10 nM inhibition% PAPR-2
[6] = read-out: PARP-2 Inhibition % (10 nM)
[7] = MDA-MB-436, 72 h, CellTiter-Glo, read-out: MDA-MB-436 IC50

NC(=O)c1cccc2[nH]c(C3CCN(CCCN4C(=O)c5ccccc5C4=O)C3)nc12 (centres unmarked) [Compound 5ce, 2-(1-(3-(1,3-Dioxoisoindolin-2-yl)propyl)pyrrolidin-3-yl)-1H-benzo[d]imidazole-4-carboxamide]
inhibition at 0.01 µM (PARP-1; [3]): 22% | inhibition at 0.01 µM (PARP-1; [4]): 22% | inhibition at 0.01 µM (PARP-2; [5]): 74.6% | inhibition at 0.01 µM (PARP-2; [6]): 74.5% | inhibition at 0.00508 µM ([1]; replicate 1, read-out: Inh % 1): 20.1% | inhibition at 0.00508 µM ([1]; replicate 2, read-out: Inh % 2): 0.9% | inhibition at 0.0152 µM ([1]; replicate 1, read-out: Inh % 1): -2.8% | inhibition at 0.0152 µM ([1]; replicate 2, read-out: Inh % 2): -5% | inhibition at 0.0457 µM ([1]; replicate 1, read-out: Inh % 1): -11.2% | inhibition at 0.0457 µM ([1]; replicate 2, read-out: Inh % 2): -11.9% | inhibition at 0.41 µM ([1]; replicate 1, read-out: Inh % 1): -6.1% | inhibition at 0.41 µM ([1]; replicate 2, read-out: Inh % 2): -15.6% | inhibition at 1.23 µM ([1]; replicate 1, read-out: Inh % 1): -8.9% | inhibition at 1.23 µM ([1]; replicate 2, read-out: Inh % 2): -17.5% | inhibition at 3.7 µM ([1]; replicate 1, read-out: Inh % 1): -1.2% | inhibition at 3.7 µM ([1]; replicate 2, read-out: Inh % 2): -9.2% | inhibition at 11.11 µM ([1]; replicate 1, read-out: Inh % 1): 15.7% | inhibition at 11.11 µM ([1]; replicate 2, read-out: Inh % 2): -2.9% | inhibition at 33.33 µM ([1]; replicate 1, read-out: Inh % 1): -10.9% | inhibition at 33.33 µM ([1]; replicate 2, read-out: Inh % 2): -11% | inhibition at 100 µM ([1]; replicate 1, read-out: Inh % 1): 0.113% | inhibition at 100 µM ([1]; replicate 2, read-out: Inh % 2): -9.4% | IC50 [1, 7]: > 100 µM | IC50 [2]: > 100 µM | inhibition at 0.00508 µM ([2]; replicate 1, read-out: Inh % 1): -4.4% | inhibition at 0.00508 µM ([2]; replicate 2, read-out: Inh % 2): 0.4% | inhibition at 0.0152 µM ([2]; replicate 1, read-out: Inh % 1): -2.3% | inhibition at 0.0152 µM ([2]; replicate 2, read-out: Inh % 2): -0.9% | inhibition at 0.0457 µM ([2]; replicate 1, read-out: Inh % 1): 1.8% | inhibition at 0.0457 µM ([2]; replicate 2, read-out: Inh % 2): 10% | inhibition at […] ([2]; replicate 1, read-out: Inh % 1): -0.6% | inhibition at […] ([2]; replicate 2, read-out: Inh % 2): -2.2% | inhibition at 0.41 µM ([2]; replicate 1, read-out: Inh % 1): 12.8% | inhibition at 0.41 µM ([2]; replicate 2, read-out: Inh % 2): 3.7% | inhibition at 1.23 µM ([2]; replicate 1, read-out: Inh % 1): 7.5% | inhibition at 1.23 µM ([2]; replicate 2, read-out: Inh % 2): 3.7% | inhibition at 3.7 µM ([2]; replicate 1, read-out: Inh % 1): 6.8% | inhibition at 3.7 µM ([2]; replicate 2, read-out: Inh % 2): 9.9% | inhibition at 11.11 µM ([2]; replicate 1, read-out: Inh % 1): 13.7% | inhibition at 11.11 µM ([2]; replicate 2, read-out: Inh % 2): -0.541% | inhibition at 33.33 µM ([2]; replicate 1, read-out: Inh % 1): 11% | inhibition at 33.33 µM ([2]; replicate 2, read-out: Inh % 2): 3.9% | inhibition at 100 µM ([2]; replicate 1, read-out: Inh % 1): 6.1% | inhibition at 100 µM ([2]; replicate 2, read-out: Inh % 2): 4.5%

NC(=O)c1cccc2[nH]c(C3CCN(CC(O)c4ccccc4)C3)nc12 (centres unmarked) [Compound 5cf, 2-(1-(2-Hydroxy-2-phenylethyl)pyrrolidin-3-yl)-1H-benzo[d]imidazole-4-carboxamide]
inhibition at 0.01 µM (PARP-1; [3]): 5.03% | inhibition at 0.01 µM (PARP-1; [4]): 5% | inhibition at 0.01 µM (PARP-2; [5]): 8.96% | inhibition at 0.01 µM (PARP-2; [6]): 9% | inhibition at 0.00508 µM ([1]; replicate 1, read-out: Inh % 1): -0.144% | inhibition at 0.00508 µM ([1]; replicate 2, read-out: Inh % 2): -3.2% | inhibition at 0.0152 µM ([1]; replicate 1, read-out: Inh % 1): -5.7% | inhibition at 0.0152 µM ([1]; replicate 2, read-out: Inh % 2): -4.4% | inhibition at 0.0457 µM ([1]; replicate 1, read-out: Inh % 1): -8.5% | inhibition at 0.0457 µM ([1]; replicate 2, read-out: Inh % 2): -9.4% | inhibition at 0.41 µM ([1]; replicate 1, read-out: Inh % 1): -14.6% | inhibition at 0.41 µM ([1]; replicate 2, read-out: Inh % 2): -10.9% | inhibition at 1.23 µM ([1]; replicate 1, read-out: Inh % 1): -9.9% | inhibition at 1.23 µM ([1]; replicate 2, read-out: Inh % 2): -7% | inhibition at 3.7 µM ([1]; replicate 1, read-out: Inh % 1): 1.6% | inhibition at 3.7 µM ([1]; replicate 2, read-out: Inh % 2): -6.5% | inhibition at 11.11 µM ([1]; replicate 1, read-out: Inh % 1): -3.4% | inhibition at 11.11 µM ([1]; replicate 2, read-out: Inh % 2): -9.3% | inhibition at 33.33 µM ([1]; replicate 1, read-out: Inh % 1): 17.3% | inhibition at 33.33 µM ([1]; replicate 2, read-out: Inh % 2): 8.3% | inhibition at 100 µM ([1]; replicate 1, read-out: Inh % 1): 86.9% | inhibition at 100 µM ([1]; replicate 2, read-out: Inh % 2): 70.9% | IC50 [1, 7]: 61 µM | IC50 ([1]; MDA-MB-436, 72 h, supplement Summary sheet, read-out: IC50): 61 µM | IC50 ([1]; MDA-MB-436, curve fit list, no unit in the cell, concentration in uM, read-out: IC50): 61 µM | LogIC50 ([1]; MDA-MB-436, curve fit on Log (uM) concentrations): 1.786 | Top ([1]; MDA-MB-436, curve fit parameter (Inh %), '= 100.0' is a constrained value): 104.3 | IC50 [2]: > 100 µM | inhibition at 0.00508 µM ([2]; replicate 1, read-out: Inh % 1): -1.7% | inhibition at 0.00508 µM ([2]; replicate 2, read-out: Inh % 2): -8.4% | inhibition at 0.0152 µM ([2]; replicate 1, read-out: Inh % 1): 3.2% | inhibition at 0.0152 µM ([2]; replicate 2, read-out: Inh % 2): -3.1% | inhibition at 0.0457 µM ([2]; replicate 1, read-out: Inh % 1): -6.9% | inhibition at 0.0457 µM ([2]; replicate 2, read-out: Inh % 2): -3.4% | inhibition at […] ([2]; replicate 1, read-out: Inh % 1): 10.3% | inhibition at […] ([2]; replicate 2, read-out: Inh % 2): -1.9% | inhibition at 0.41 µM ([2]; replicate 1, read-out: Inh % 1): 9.4% | inhibition at 0.41 µM ([2]; replicate 2, read-out: Inh % 2): 0.649% | inhibition at 1.23 µM ([2]; replicate 1, read-out: Inh % 1): 5.9% | inhibition at 1.23 µM ([2]; replicate 2, read-out: Inh % 2): 8.1% | inhibition at 3.7 µM ([2]; replicate 1, read-out: Inh % 1): 13.8% | inhibition at 3.7 µM ([2]; replicate 2, read-out: Inh % 2): 3.5% | inhibition at 11.11 µM ([2]; replicate 1, read-out: Inh % 1): 7.2% | inhibition at 11.11 µM ([2]; replicate 2, read-out: Inh % 2): -0.268% | inhibition at 33.33 µM ([2]; replicate 1, read-out: Inh % 1): 15.8% | inhibition at 33.33 µM ([2]; replicate 2, read-out: Inh % 2): -1.9% | inhibition at 100 µM ([2]; replicate 1, read-out: Inh % 1): 29.7% | inhibition at 100 µM ([2]; replicate 2, read-out: Inh % 2): 21.1%
